Like-named read-outs stand apart in the source and are kept apart here.
Columns and labels:
[1] = test system: T lymphocytes from pmel-1 T cell receptor (TCR) transgenic mice; assay: retention of ^3H-labeled nucleoside analogs in naïve and proliferating primary T cells; format: cell-based, mouse
Experimental: In order to identify candidates for PET probes that can distinguish between activated T cells and non-activated, naïve T cells, we conducted a radioactive uptake assay, the results of which are shown in FIG. 1. […] These measurements were performed after incubating cells with radioactive compounds for 1 hr and performing successive washes to remove unincorporated probes. […] For example, we identified compounds #1 through #15 (see FIG. 2A for chemical structures) as PET probe candidates useful for detecting activated T cells. FIG. 2A presents substrates of dCK labeled with the ^18F positron emitting radioisotope.
T lymphocytes from pmel-1 T cell receptor (TCR) transgenic mice were stimulated ex vivo using a melanoma antigen (1 micromolar hgp 10025-33). These cells were then cultured for radioactive uptake and kinase assays that were performed 72 hours post-stimulation. […] The plate was then washed 5 times with media containing 5% fetal calf serum (FCS) by using the Millipore Vacuum Manifold (Billerica, Mass.); the amount of incorporated probe was measured by scintillation counting using the PerkinElmer Microbeta (Waltham, Mass.). […]
FIG. 1 identifies fluorinated deoxycytidine analogs retained in activated versus naive T lymphocytes and incorporated into DNA. […] Following successive washes, intracellular radioactivity was measured by scintillation counting. […]

MoMSV-induced sarcomas = assay: microPET/CT in oncoretrovirus (MoMSV) sarcoma model of anti-tumor immunity
Experimental: All the mice used in these studies were bred and maintained according to the guidelines of the Department of Laboratory Animal Medicine (DLAM) at the University of California, Los Angeles. For the oncoretrovirus-induced sarcoma model, C57/BL6 mice were challenged intramuscularly in the right triceps with the Moloney murine sarcoma and leukemia virus complex (MoMSV) in a volume of 100 uL of PBS as described previously^6. B6-MRL-Fas^1pr/J mice used for systemic autoimmunity studies were purchased from the Jackson Laboratory (stock number 000482). To monitor the immunosuppressive treatment, these mice were given intraperitoneal injections of dexamethasone (DEX, 10 mg/kg) at 24 hr intervals and were scanned by microPET/CT 24 hr after the last injection. Animals were anesthetized with 2% isoflurane, injected intravenously with 200 microCi [^18F]D-FAC and then scanned with microPET/CT; mice were sacrificed immediately after imaging. Organs were rapidly excised, weighed, and the radioactivity was measured in a well counter. After decay correction, results were expressed as percent of the injected dose of activity per gram of tissue (% ID/g). Other mice were anesthetized with 2% isoflurane and injected intravenously with 1 mCi [^18F]D-FAC. After 1 hr, mice were euthanized, embedded in 3% carboxymethyl cellulose (CMC, Sigma), and frozen in 100% ethanol with dry ice for 45 min. The 50 micron sections were cut using a whole body cryostat, (PMV, Stockholm, Sweden); samples were exposed overnight on BAS-TR2025 plates (Fujifilm Life Science, Stamford, Conn.). Imaging plates were read using a Fujibas-5000 phosphorimager (16 bit, 25 micron resolution; Fujifilm Life Science).
In this model, antigen-specific T cells primed by immunodominant epitopes encoded by viral gag and env genes rapidly expand in spleen and tumor draining lymph nodes (DLNs) and then traffic to the tumor lesion which is rejected over a period of 2-5 weeks^17,18. In fact, the kinetics of T cell responses against MoMSV-induced sarcomas have been studied extensively using conventional ex vivo approaches and our group has used PET reporter gene imaging to visualize tumor rejection in this model^17. To analyze whether the [^18F]D-FAC microPET/CT imaging can detect sites of localized immune activation, mice were scanned before and after the virus challenge.
To determine whether [^18F]D-FAC can provide unique information regarding localized immune activation via the afore-mentioned model, the mice imaged by [^18F]D-FAC were also scanned on consecutive days using [^18F]FDG and [^18F]FLT.

[2] = test system: L1210 wild type or 10K subcutaneous tumors; assay: PET of subcutaneous L1210 wild type and 10K tumors; format: in vivo, SCID mice
Experimental: To investigate whether [^18F]D-FAC PET can distinguish gemcitabine-sensitive cancer cells from the resistant cancer cells in vivo, mice were injected with L1210 wild type or 10K cells to establish subcutaneous tumors; mice were scanned with [^18F]FDG PET to confirm that implanted cells were viable and growing in vivo and [^18F]D-FAC PET scans were carried out to compare D-FAC accumulation in gemcitabine sensitive versus resistant cells. […] The mice were injected 4 days prior to imaging.
Mice were challenged with the MoMSV onco-retrovirus.

[3] = target: T1, deoxycytidine kinase (dCK) (Mus musculus, UniProt P43346); assay: kinase assay with L1210 cell line lysates; format: biochemical, murine
T1 construct: endogenous in cells; host or cells: L1210 murine leukemia cells (wild type), whole-cell lysate; L1210-10K (dCK-deficient) as negative control
Excerpt: (§1) To evaluate whether [^18F]D-FAC PET can determine resistance to gemcitabine and Ara-C, we used a previously described experimental model based on the L1210 murine leukemia cells and their gemcitabine/Ara-C resistant 10K derivatives^20. The molecular defect responsible for resistance in the L1210 10K cells is loss of dCK expression due to a genetic modification of chromosome 5 in the 3′ region of the dCK gene. The 10K cell line was derived by exposing the parental L1210 cells to increasing concentrations of gemcitabine^20; before experiments, we confirmed that L1210 10K cells lack expression of dCK at the protein level (FIG. 13). Thus, to determine whether D-FAC retention correlates with gemcitabine resistance in these cells, we performed radioactive tracer uptake assays using [^3H]D-FAC with [^3H]-FLT used as a negative control. We observed that the gemcitabine-resistant L1210-10K cell line retained much lower amounts of [^3H]D-FAC in contrast to the gemcitabine-sensitive L1210 parental cell line (FIG. 14A). In fact, [^3H]D-FAC uptake was 40-fold higher in dCK^+ cells compared to cells lacking dCK activity (dCK^+=1288 fmols/1×10^5 cells; dCK-=34 fmols/1×10^5 cells; p<0.001). In contrast, [^3H]FLT uptake was indistinguishable between these cell lines. FIG. 14B presents a [^3H]D-FAC kinase assay with the L1210 cell lines using [^3H]D-FAC as a substrate (1 microgram protein/reaction). In dCK positive cells shown in FIG. 14B, D-FAC phosphorylation was 52-fold higher than in dCK deficient cells (dCK^+=62 fmols; dCK^−=1.2 fmols; p=0.028). Reintroduction of dCK into the L1210-10K cells restored [^18F]D-FAC uptake and phosphorylation (FIG. 14), thus further confirming the critical role of this nucleoside kinase in regulating D-FAC metabolism.
(§2) Each cell type was incubated separately with each of the following: [^18F]L-FAC, and [^18F]-CA, and the positive control [^18F]D-FAC. The cells were incubated with [^18F]L-FAC, [^18F]-CA, and [^18F]D-FAC for 1 hour. Following successive washes, intracellular radioactivity was measured by scintillation counting to obtain the result shown in FIG. 17A.
(§3) Lysates from L1210 wildtype (WT) and dCK deficient (10K) cells were incubated for 20 minutes with [^18F]L-FMAC; phosphorylated products were measured by scintillation counting.

[4] = chromatography of plasma after intravenous injection of probe (deamination); format: in vivo, C57BL/6 mouse; conditions: plasma 10 and 45 minutes after intravenous injection
[5] = test system: L1210 murine leukemia cells (dCK^+); assay: radioactive tracer uptake assay, L1210 parental cells; format: cell-based; conditions: for dependence of retention and phosphorylation on dCK expression: L1210 wild type vs 10K cells, 1 hour incubation
Excerpt: as §1, §2

[6] = test system: NIH3T3 fibroblasts engineered to overexpress nucleoside kinases (dCK) and the nucleoside transporter SLC29A1; assay: [^3H]D-FAC uptake in engineered NIH3T3 fibroblasts; format: cell-based
[7] = test system: deoxycytidine kinase (dCK); assay: kinase assay with L1210 cell line lysates; format: biochemical, murine; conditions: dCK^− cells; 1 microgram protein/reaction
Excerpt: as §1, §2, §3

[8] = test system: L1210-10K cell line (lacking dCK); assay: radioactive tracer uptake assay, L1210-10K cells; format: cell-based, murine
Excerpt: To evaluate whether [^18F]D-FAC PET can determine resistance to gemcitabine and Ara-C, we used a previously described experimental model based on the L1210 murine leukemia cells and their gemcitabine/Ara-C resistant 10K derivatives^20. The molecular defect responsible for resistance in the L1210 10K cells is loss of dCK expression due to a genetic modification of chromosome 5 in the 3′ region of the dCK gene. The 10K cell line was derived by exposing the parental L1210 cells to increasing concentrations of gemcitabine^20; before experiments, we confirmed that L1210 10K cells lack expression of dCK at the protein level (FIG. 13). Thus, to determine whether D-FAC retention correlates with gemcitabine resistance in these cells, we performed radioactive tracer uptake assays using [^3H]D-FAC with [^3H]-FLT used as a negative control. We observed that the gemcitabine-resistant L1210-10K cell line retained much lower amounts of [^3H]D-FAC in contrast to the gemcitabine-sensitive L1210 parental cell line (FIG. 14A). […]
Each cell type was incubated separately with each of the following: [^18F]L-FAC, and [^18F]-CA, and the positive control [^18F]D-FAC. […] Following successive washes, intracellular radioactivity was measured by scintillation counting to obtain the result shown in FIG. 17A.

[9] = test system: pancreatic inflammatory lesions; assay: PET/CT scan of human with chronic pancreatitis; format: in vivo; conditions: person
Excerpt: FIG. 30 presents PET/CT scans of a human with chronic pancreatitis. The pancreas head 301 is visible.

[10] = chromatography after incubation of probe with human plasma; conditions: 10 and 45 minutes incubation
Experimental: FIG. 19 presents chromatographs of [^18F]D-FAC (FIG. 19C) and [^18F]L-FAC (FIG. 19D) in plasma 10 minutes and 45 minutes after the probe was incubated with human plasma.

[11] = spleen, 60 min after intravenous injection, 3 mice
[12] = C57/BL6, mouse, in vivo, iv, 60 min

T1 sequence (P43346 whole entry): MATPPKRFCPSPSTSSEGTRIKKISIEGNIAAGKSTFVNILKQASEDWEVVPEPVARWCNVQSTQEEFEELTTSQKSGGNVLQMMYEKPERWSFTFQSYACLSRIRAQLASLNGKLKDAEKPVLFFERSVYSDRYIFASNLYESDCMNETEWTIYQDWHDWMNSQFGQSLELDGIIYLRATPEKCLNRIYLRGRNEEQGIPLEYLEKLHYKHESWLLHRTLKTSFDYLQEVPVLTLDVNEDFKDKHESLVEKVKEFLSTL

With `Nc1ccn([C@@H]2O[C@H](CO)[C@@H](O)C2(F)F)c(=O)n1` [dFdC, 2′,2′-difluorodeoxycytidine, reference compound] the “difference in probe retention by proliferating compared to naïve T cells” value ([1]; 1 hr incubation, 72 hrs after stimulation) was over 20 fold.
With “2-[^18F]fluoro-2-deoxy-D-glucose [[^18F]FDG, reference compound]” the “accumulation in tumor over background (contralateral muscle tissue)” value (MoMSV-induced sarcomas; tumor lesions) was 8.2±4.2 % ID/g tumor over background, the “retention in the brain and the myocardium” value (mouse, in vivo) was “substantially accumulates” and the “Spleen, % ID/g per organ normalized to % ID/g muscle” value (“Spleen, % ID/g per organ normalized” below) [11] was 1.69 +/− 0.16 % ID/g per organ normalized to % ID/g muscle. The “accumulation in gemcitabine sensitive versus resistant cells” value ([2]; mouse, in vivo) was “equivalent”.
In the case of `Cc1cn([C@H]2C[C@H](F)[C@@H](CO)O2)c(=O)[nH]c1=O` [[^18F]FLT, 3′-fluoro-3′-deoxythymidine], the “accumulation at sites of immune activation” value (MoMSV-induced sarcomas; day 14) is reported as “no detectable”, the “Spleen, % ID/g per organ normalized” value [12] is reported as 1.02 +/− 0.21 % ID/g per organ normalized to % ID/g muscle and the “Thymus, % ID/g per organ normalized to % ID/g muscle” value [12] is reported as 1.22 +/− 0.23 % ID/g per organ normalized to % ID/g muscle. For the same compound, the “accumulation in thymus and spleen” value [12] was “neither [^18F]FLT nor [^18F]D-FMAU showed detectable accumulation”.
For `Cc1cn([C@H]2O[C@@H](CO)[C@H](O)[C@H]2[18F])c(=O)nc1N` [[^18F]L-FMAC], the “dependence of retention and phosphorylation on dCK expression” value (“dependence” for short) ([3]; L1210 WT and 10K lysates, 20 minutes incubation) was “requires dCK expression” and the “resistance to deamination in plasma after injection into mice” value [4] was “resistant to deamination”.
In the case of `Nc1nc(Cl)nc2c1ncn2[C@@H]1O[C@H](CO)[C@@H](O)[C@@H]1[18F]` [[^18F]-CA, 2-chloro-9-(2′-deoxy-2′-[^18F]fluoro-β-D-arabinofuranosyl)adenine], the “dependence” value [5] is reported as “requires dCK expression”.
In the case of `Cc1cn([C@@H]2O[C@H](CO)[C@@H](O)[C@@H]2F)c(=O)[nH]c1=O` [[^18F]FMAU, 1-(2′-Deoxy-2′-fluoro-β-D-arabinofuranosyl)-5-methyluracil], the “accumulation in thymus and spleen” value (60 min after intravenous injection) is reported as “neither [^18F]FLT nor [^18F]D-FMAU showed detectable accumulation”, the “Spleen, % ID/g per organ normalized” value [11] is reported as 1.08 +/− 0.27 % ID/g per organ normalized to % ID/g muscle and the “Thymus, % ID/g per organ normalized to % ID/g muscle” value (thymus, 60 min after intravenous injection, 3 mice) is reported as 1.33 +/− 0.24 % ID/g per organ normalized to % ID/g muscle.
For `Nc1ccn(C2O[C@H](CO)[C@@H](O)[C@@H]2F)c(=O)n1` (stereo partly drawn) [[^3H]D-FAC, 1-(2′-deoxy-2′-fluoro-arabinofuranosyl) cytosine], the “uptake in cells overexpressing dCK and SLC29A1” value [6] was “increased uptake”, the “incorporation into DNA of proliferating T cells” value [1] was “incorporated in the DNA” and the phosphorylation [7] was 1.2 fmols. The phosphorylation ([3]; dCK^+ cells, 1 microgram protein/reaction) was 62 fmols, the “phosphorylation in dCK positive cells versus dCK deficient cells” value ([3]; p=0.028) was 52 fold and the uptake [8] was 34 fmols/1×10^5 cells. For the same compound, the uptake ([5]; dCK^+ cells) was 1288 fmols/1×10^5 cells and the “uptake in dCK^+ cells compared to cells lacking dCK activity” value ([5]; p<0.001) was 40 fold.
In the case of `Cc1cn([C@H]2C[C@H](F)[C@@H](CO)O2)c(=O)[nH]c1=O` [[^3H]FLT, 3′-fluoro-3′-deoxythymidine, reference compound], the “uptake compared between L1210 and L1210-10K cell lines” value ([5]; negative control) is reported as “indistinguishable”.
With `Nc1ccn([C@H]2O[C@@H](CO)[C@H](O)[C@H]2[18F])c(=O)n1` [[^18F]L-FAC, 1-(2′-deoxy-2′-[^18F]fluoro-β-L-arabinofuranosyl)cytosine] the “accumulation in pancreatic inflammatory lesions” value [9] was “clear accumulation”, the “stability in human plasma” value [10] was “improved stability relative to [^18F]D-FAC” and the “resistance to deamination in plasma after injection into mice” value [4] was “more resistant to deamination than [^18F]D-FAC”. For the same compound, the “biodistribution compared with [^18F]D-FAC” value (60 minutes after intravenous injection) was “resembles that of [^18F]D-FAC”, the “dependence” value [5] was “requires dCK expression” and the “retention/visualization in dCK deficient, gemcitabine resistant tumors” value ([2]; L1210-10K, 4 days after injection) was “not visualization”. The “retention/visualization in dCK positive, gemcitabine sensitive tumors” value ([2]; L1210 WT, 4 days after injection) was “allows visualization”.
